The structures appear in SMILES notation. Read-outs that look alike come from different tables or passages of the source.

6 compounds from US20230339978A1, “COMPOUNDS FOR PREVENTION OR TREATMENT OF NEURODEGENERATIVE DISORDERS” (1ST Biotherapeutics, Inc., priority 2020, published 2023) can be followed below.

Assay [1] has as its target LRRK2 G2019S (Homo sapiens (Human), UniProt Q5S007, G2019S). Description: LRRK2 G2019S kinase assay (Adapta). The format is biochemical. The settings on record: 100 µM ATP, LRRKtide substrate; read-out: LRRK2_G2019S IC50. Here is the method: (§1) LRRK2 and LRRK2 G2019S Kinase Assay
(§2) The LRRK2 and LRRK2 G2019S kinase assays were performed using the AdaptaTM technology in ThermoFisher Scientific. This experiment was carried out according to the supplier’s protocol. Briefly, assay conditions were as follows. The mixture of substrate (LRRKtide) and each kinase was prepared in 50 mM Tris pH 8.5, 0.01% BRIJ-35, 10 mM MgCl2, 1 mM EGTA, 0.02% NaN3. Assays were performed in the presence of 70 µM ATP and 100 µM ATP (KmATP) in LRRK2 and LRRK2 G2019S, respectively. The reaction was progressed at room temperature for 1 hour. Upon completion of kinase reaction, 5 µL of Detection Mix was added and after 60 min incubation time, the emission ratio of 665/615 nm was calculated

For assay [2], the target named is GST-tagged recombinant human RIPK2 (Homo sapiens (Human), UniProt O43353). Kind of assay: RIP2 Kinase Assay (ADP-Glo). The format is biochemical. The settings on record: 25 µM ATP, MBP substrate, 30° C. 60 minutes. (In general: ADP-Glo first removes unused ATP, then detects ADP through luciferase.)
Sequence of GST-tagged recombinant human RIPK2 (O43353 whole entry): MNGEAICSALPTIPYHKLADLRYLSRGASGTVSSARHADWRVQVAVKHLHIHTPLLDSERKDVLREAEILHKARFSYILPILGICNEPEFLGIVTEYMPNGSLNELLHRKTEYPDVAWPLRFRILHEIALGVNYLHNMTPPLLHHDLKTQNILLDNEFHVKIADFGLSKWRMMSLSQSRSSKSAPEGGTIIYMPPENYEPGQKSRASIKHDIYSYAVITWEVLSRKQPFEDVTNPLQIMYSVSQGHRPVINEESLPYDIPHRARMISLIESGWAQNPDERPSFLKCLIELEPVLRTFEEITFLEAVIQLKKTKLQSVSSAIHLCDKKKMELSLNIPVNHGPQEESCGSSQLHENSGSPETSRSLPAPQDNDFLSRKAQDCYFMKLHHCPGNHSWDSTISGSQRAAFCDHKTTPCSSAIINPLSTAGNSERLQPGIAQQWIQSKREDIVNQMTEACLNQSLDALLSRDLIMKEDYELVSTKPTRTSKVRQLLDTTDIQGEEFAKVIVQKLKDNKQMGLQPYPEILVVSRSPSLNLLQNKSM
Description: GST-tagged recombinant human RIPK2(25 ng) is incubated with 5 µL of compounds (0.5% DMSO), 5 µL of MBP (0.5 µg/µl) and 5 µL of ATP (25 µM) in buffer (40 mM Tris, 7.5; 20 mM MgCl2; 0.1 mg/ml BSA; 50 µM DTT). The assay was started by incubating the reaction mixture in a 96-well plate at 30° C. for 60 minutes. After the incubation, 25 µL ADP-Glo reagent was added, and the reaction was incubated at 30° C. for 40 minutes to stop the reaction and degrade residual ATP. The ADP product was then converted to ATP by adding 50 µL per well of detection reagent. Luminescence was detected after 30 minutes room temperature incubation with the Molecular device I3X plate reader. The IC50 values were calculated from a series of percent inhibition values determined at a range of inhibitor concentration using software routines as implemented in the GraphPad Prism 7 software or SigmaPlot 13.0.
Assay [3] relates to IL-6 secretion in BV-2 cell. Kind of assay: IL-6 Secretion in BV-2 Cell (L18-MDP stimulated, ELISA). The format is cell-based. The settings on record: BV-2 mouse microglia cells, 10 µg/ml L18-MDP, 24 hr. The protocol: IL-6 Secretion in BV-2 Cell
BV-2 mouse microglia cells were kindly provided from Dr. Bae in Korea Institute of Science and Technology (KIST). BV-2 cells were thawed and suspended in Dulbecco’s modified eagle medium (DMEM) supplemented with 10% fetal bovine serum (FBS) and 1% Penicillin/Streptomycin. Cells were seeded into 96 well plates at 2X10^4 cells/well and allowed to attach for 24 hr. On the day of the experiment, various concentration of compounds were treated, and cells were stimulated with 10 µg/ml L18-MDP. After 24 hr incubation, supernatant was collected for cytokine assay.
Absorbance at 450 nm was measured using SpectraMax I3X microplate reader (Molecular Device). Values of media-only wells were subtracted and % inhibition for each compound concentration relative to the DMSO/L18-MDP-treated controls (100%) was calculated.

Assay [4] concerns the target LRRK2 (WT) (Homo sapiens (Human), UniProt Q5S007). Description: LRRK2 kinase assay (Adapta). The format is biochemical. The settings on record: 70 µM ATP, LRRKtide substrate. Here is the method: as §1, §2
For assay [5], the target named is T1, His-tagged recombinant human ABL1 (Homo sapiens (Human), UniProt P00519). The settings on record: read-out: c-Abl IC50; 25 µM ATP, Abltide substrate, 30° C. 30-min.
T1 sequence (P00519 whole entry): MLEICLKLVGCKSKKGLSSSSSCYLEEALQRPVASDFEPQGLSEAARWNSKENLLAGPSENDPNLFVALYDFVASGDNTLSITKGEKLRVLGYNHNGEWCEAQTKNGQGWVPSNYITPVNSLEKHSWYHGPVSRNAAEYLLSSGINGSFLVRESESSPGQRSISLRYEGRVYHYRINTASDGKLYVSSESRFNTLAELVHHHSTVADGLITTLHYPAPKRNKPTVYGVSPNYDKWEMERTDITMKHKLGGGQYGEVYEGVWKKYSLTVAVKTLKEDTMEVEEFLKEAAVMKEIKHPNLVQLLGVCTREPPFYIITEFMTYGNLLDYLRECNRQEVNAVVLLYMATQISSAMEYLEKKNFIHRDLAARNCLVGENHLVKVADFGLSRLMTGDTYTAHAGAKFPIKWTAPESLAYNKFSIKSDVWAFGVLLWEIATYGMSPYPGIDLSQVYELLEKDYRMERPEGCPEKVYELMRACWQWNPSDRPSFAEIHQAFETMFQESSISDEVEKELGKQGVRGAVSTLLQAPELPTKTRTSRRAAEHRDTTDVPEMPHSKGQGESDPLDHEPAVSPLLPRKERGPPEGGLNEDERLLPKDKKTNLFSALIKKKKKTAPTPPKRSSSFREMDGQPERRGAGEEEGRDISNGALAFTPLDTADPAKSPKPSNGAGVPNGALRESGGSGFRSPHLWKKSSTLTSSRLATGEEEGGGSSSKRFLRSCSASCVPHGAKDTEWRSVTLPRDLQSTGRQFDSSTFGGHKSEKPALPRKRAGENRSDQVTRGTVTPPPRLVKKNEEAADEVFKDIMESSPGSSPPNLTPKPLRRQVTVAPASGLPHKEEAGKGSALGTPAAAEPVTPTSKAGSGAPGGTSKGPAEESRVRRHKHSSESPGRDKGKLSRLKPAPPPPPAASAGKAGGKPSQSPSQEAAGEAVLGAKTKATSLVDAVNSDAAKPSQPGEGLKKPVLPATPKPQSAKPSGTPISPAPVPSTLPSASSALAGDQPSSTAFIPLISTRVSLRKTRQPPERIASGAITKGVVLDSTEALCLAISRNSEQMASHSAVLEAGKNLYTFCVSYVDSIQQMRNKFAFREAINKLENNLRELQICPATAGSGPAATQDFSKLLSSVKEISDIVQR
Description: (§3) ADP-Glo assay kit was purchased from Promega. Magnesium chloride (MgCl2), bovine serum albumin (BSA), ethylene glycol-bis(β-aminoethyl ether)-N,N,N′,N′-tetraacetic acid (EGTA), tween-20, 1,4-dithiothreitol (DTT) and dimethyl sulfoxide (DMSO) were purchased from Sigma-Aldrich. HEPES buffer was purchased from Gibco. ABL1 kinase and Abltide were purchased from Signalchem.
(§4) c-Abl kinase activity was measured by Promega’s ADP-Glo ® Assay. In this assay, His-tagged recombinant human ABL1 (0.25 ng/µl) is incubated with 5 µL of compounds (0.5% DMSO), 5 µL of Abltide (0.01 µg/µl) and 5 µL of ATP (25 µM) in buffer (50 mM HEPES,7.5; 10 mM MgCl2; 1 mM EGTA; 0.05% BSA; 0.01% Tween-20; 2 mM DTT.). The assay was started by incubating the reaction mixture in a 96-well plate at 30° C. for 30-min. After the incubation, 25 µL ADP-Glo reagent was added and the reaction was incubated at room temperature for 40-min to stop the reaction and degrade residual ATP. The ADP product was then converted to ATP by adding 50 µL per well of detection reagent. Luminescence was detected after 30-min room temperature incubation with the Molecular device I3X plate reader. The IC50 values were calculated from a series of percent inhibition values determined at a range of inhibitor concentration using software routines as implemented in the GraphPad Prism 7 software and Sigma Plot 13.0.
Assay [6] deals with T1, His-tagged recombinant human ABL1. Kind of assay: biochemical.
Description: as §3, §4

Sequence of LRRK2 G2019S (Q5S007 whole entry G2019S): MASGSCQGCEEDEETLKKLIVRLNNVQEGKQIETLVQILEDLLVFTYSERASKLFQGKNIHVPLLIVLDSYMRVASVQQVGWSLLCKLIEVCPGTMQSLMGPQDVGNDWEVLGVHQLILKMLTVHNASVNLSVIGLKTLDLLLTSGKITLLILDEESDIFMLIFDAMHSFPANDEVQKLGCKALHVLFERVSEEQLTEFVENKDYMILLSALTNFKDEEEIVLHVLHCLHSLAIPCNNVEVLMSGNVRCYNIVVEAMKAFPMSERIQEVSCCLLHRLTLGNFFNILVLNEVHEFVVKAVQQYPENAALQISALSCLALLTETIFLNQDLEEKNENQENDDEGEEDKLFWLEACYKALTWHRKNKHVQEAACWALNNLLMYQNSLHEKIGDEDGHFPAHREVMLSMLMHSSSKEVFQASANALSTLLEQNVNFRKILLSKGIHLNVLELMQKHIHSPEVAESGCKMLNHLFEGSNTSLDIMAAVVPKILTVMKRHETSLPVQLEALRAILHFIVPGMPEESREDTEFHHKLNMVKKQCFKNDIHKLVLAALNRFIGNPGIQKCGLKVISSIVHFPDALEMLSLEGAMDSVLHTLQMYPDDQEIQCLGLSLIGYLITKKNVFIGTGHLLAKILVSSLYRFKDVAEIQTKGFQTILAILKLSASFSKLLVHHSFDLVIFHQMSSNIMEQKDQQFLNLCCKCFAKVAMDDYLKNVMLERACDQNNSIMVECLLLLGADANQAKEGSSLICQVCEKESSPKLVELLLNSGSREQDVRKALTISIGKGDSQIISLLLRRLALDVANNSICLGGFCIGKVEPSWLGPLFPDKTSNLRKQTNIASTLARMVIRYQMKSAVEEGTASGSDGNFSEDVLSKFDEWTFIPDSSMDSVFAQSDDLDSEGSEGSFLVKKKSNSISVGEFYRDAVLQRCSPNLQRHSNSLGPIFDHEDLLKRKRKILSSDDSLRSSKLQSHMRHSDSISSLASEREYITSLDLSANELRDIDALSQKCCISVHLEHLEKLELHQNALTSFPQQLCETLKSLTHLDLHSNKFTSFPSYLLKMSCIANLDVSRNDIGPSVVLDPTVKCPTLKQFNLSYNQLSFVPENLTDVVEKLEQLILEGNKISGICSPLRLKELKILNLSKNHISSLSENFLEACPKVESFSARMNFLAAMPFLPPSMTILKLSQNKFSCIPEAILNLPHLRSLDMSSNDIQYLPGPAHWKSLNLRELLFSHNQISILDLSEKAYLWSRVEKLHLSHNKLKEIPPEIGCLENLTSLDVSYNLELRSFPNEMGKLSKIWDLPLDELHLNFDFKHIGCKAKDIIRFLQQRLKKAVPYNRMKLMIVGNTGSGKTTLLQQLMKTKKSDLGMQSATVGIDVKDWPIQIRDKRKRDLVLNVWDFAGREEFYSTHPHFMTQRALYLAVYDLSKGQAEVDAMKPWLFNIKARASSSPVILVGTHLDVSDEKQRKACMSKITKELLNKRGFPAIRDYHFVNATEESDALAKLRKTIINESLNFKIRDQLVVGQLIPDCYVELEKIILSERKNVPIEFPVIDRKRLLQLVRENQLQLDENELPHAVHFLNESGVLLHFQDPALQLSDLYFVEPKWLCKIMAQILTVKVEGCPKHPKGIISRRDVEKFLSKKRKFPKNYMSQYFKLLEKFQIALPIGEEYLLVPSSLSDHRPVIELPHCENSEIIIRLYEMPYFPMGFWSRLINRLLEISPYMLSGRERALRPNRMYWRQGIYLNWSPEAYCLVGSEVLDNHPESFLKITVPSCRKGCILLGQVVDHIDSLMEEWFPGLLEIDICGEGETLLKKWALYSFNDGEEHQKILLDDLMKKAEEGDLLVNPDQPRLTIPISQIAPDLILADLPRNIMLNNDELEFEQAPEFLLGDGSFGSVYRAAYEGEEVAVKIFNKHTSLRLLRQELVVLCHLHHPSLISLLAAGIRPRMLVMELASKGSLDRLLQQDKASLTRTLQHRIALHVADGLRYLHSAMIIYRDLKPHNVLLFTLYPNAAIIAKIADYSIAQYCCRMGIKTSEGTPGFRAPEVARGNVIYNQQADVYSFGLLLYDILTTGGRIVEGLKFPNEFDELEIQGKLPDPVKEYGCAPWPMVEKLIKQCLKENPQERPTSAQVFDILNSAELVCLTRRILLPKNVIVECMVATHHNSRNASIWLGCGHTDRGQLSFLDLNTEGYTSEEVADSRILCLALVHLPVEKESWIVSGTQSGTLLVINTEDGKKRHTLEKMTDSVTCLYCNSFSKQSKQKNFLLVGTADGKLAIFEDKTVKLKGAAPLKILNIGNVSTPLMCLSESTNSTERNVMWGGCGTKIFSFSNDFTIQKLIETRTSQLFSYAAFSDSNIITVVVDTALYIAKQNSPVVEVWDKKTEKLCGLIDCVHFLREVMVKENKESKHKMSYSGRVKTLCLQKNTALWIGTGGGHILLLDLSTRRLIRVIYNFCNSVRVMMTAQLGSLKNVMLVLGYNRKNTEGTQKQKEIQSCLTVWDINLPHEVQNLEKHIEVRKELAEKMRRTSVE
Sequence of LRRK2 (WT) (Q5S007 whole entry, species assumed): as the sequence (Q5S007 whole entry G2019S) above, with S2019G counted along it

The term IC50 denotes the midpoint of a concentration-inhibition curve. As for `O=C(Nc1cc2cc(-c3cnc4[nH]ccc4c3Cl)ccn2n1)[C@@H]1C[C@@H]1F` [Example 2, (1S,2S)-N-(5-(4-chloro-1 H-pyrrolo[2,3-b]pyridin-5-yl)pyrazolo[1,5-a]pyridin-2-yl)-2-fluorocyclopropane-1-carboxamide], the IC50 in assay [1] worked out at 15 nM; in assay [2], 6.67 nM; in assay [3], 68.6 nM; in assay [4], 36.5 nM; in assay [5] it was 7.6 nM.

For the compound `Cc1c(-c2ccn3nc(NC(=O)C4CC4)cc3c2)cnc2[nH]ccc12` [Example 19, N-(5-(4-methyl-1H-pyrrolo[2,3-b]pyridin-5-yl)pyrazolo[1,5-a]pyridin-2-yl)cyclopropanecarboxamide], the IC50 in assay [6] was 2.4 nM; in assay [2], 11.4 nM; in assay [3], 82.9 nM.

As to `O=C(Nc1cc2cc(-c3cnc4[nH]cc(Cl)c4c3)ccn2n1)[C@@H]1C[C@@H]1F` [Example 11, (1S,2S)-N-(5-(3-chloro-1H-pyrrolo[2,3-b]pyridin-5-yl)pyrazolo[1,5-a]pyridin-2-yl)-2-fluorocyclopropane-1-carboxamide], the IC50 in assay [2] is 33.4 nM; in assay [3], 654 nM; in assay [5], 3.2 nM.

Turning to `O=C(Nc1cc2cc(-c3cnc4[nH]ccc4c3)ccn2n1)[C@@H]1C[C@@H]1F` [Example 1, (1S,2S)-N-(5-(1 H-pyrrolo[2,3-b]pyridin-5-yl)pyrazolo[1,5-a]pyridin-2-yl)-2-fluorocyclopropane-1-carboxamide], the IC50 in assay [1] was found to be 28 nM; in assay [2], 11 nM; in assay [3], 187 nM; in assay [4] it was 55.7 nM; in assay [5] it was 0.71 nM.

For `Cc1c(-c2ccn3nc(NC(=O)[C@H]4C[C@H]4F)cc3c2)cnc2[nH]ccc12` [Example 20, (1R,2R)-2-fluoro-N-(5-(4-methyl-1H-pyrrolo[2,3-b]pyridin-5-yl)pyrazolo[1,5-a]pyridin-2-yl)cyclopropane-1-carboxamide], the IC50 in assay [2] came to 8.37 nM; in assay [3], 65.5 nM; in assay [5] it was 3.1 nM.

Regarding `Cc1c(-c2ccn3nc(NC(=O)[C@@H]4C[C@@H]4F)cc3c2)cnc2[nH]ccc12` [Example 9, (1S,2S)-2-fluoro-N-(5-(4-methyl-1H-pyrrolo[2,3-b]pyridin-5-yl)pyrazolo[1,5-a]pyridin-2-yl)cyclopropane-1-carboxamide], the figures for the IC50 in assay [2], in assay [3] and in assay [5] were 8.77 nM, 101 nM and 3.1 nM, respectively.
